19 compounds from patent US10450270B2, “Glyoxamide substituted pyrrolamide derivatives and the use thereof as medicaments for the treatment of hepatitis B” (Janssen Sciences Ireland UC, priority 2013, dated 2019) can be followed below.

The nature of data set [1]: Cytotoxicity in HepG2 cells, Resazurin viability assay. The conditions noted are these: human, HepG2 cells.
In another data set the test system is HBV. In words: Anti-HBV activity, HepG2.117 inducible HBV producing cell line (Tet-off), intracellular HBV DNA by realtime PCR. The note with it: Hepatitis B virus, 72 h; HepG2.117 cells, 3 days of treatment, intracellular HBV DNA; read-out: HepG2 117 EC50. Type of data set: cell-based.

Some results are limits rather than exact numbers.

As usually defined, the CC50 is the concentration at which the toxic effect on the cells reaches its halfway point. A word on the EC50: it is the midpoint of the concentration-response curve. Compound `Cc1c(C(=O)C(=O)N[C@@H](C)C(C)(F)F)cc(C(=O)Nc2ccc(F)c(C#N)c2)n1C` [Compound 55, N-(3-cyano-4-fluoro-phenyl)-4-[2-[[(1S)-2,2-difluoro-1-methyl-propyl]-amino]-2-oxo-acetyl]-1,5-dimethyl-pyrrole-2-carboxamide] came in with a CC50 at 4 days in data set [1] greater than 25000 nM. In the data set with HBV, the EC50 was 9 nM.
Turning to `Cc1c(C(=O)C(=O)NC2(C)CC(F)(F)C2)cc(C(=O)Nc2ccc(F)c(C#N)c2)n1C` [Compound 56, N-(3-cyano-4-fluoro-phenyl)-4-[2-[(3,3-difluoro-1-methyl-cyclobutyl)-amino]-2-oxo-acetyl]-1,5-dimethyl-pyrrole-2-carboxamide], the CC50 at 4 days in data set [1] is greater than 25000 nM. Moreover, the concentration giving a half-maximal response (EC50) in the data set on HBV was 5 nM.
Compound `Cc1c(C(=O)C(=O)NC2(C(F)(F)F)CC2)cc(C(=O)Nc2ccc(F)c(C#N)c2)n1C` [Compound 57, N-(3-cyano-4-fluoro-phenyl)-1,5-dimethyl-4-[2-oxo-2-[[1-(trifluoromethyl)-cyclopropyl]amino]acetyl]pyrrole-2-carboxamide] had a CC50 at 4 days in data set [1] greater than 25000 nM. The half-maximal effective concentration (EC50) in the data set on HBV stood at 6 nM.
Taken in the same sequence, the figures for `Cc1c(C(=O)C(=O)NC(C)(C)C(F)(F)F)cc(C(=O)Nc2ccc(F)c(C#N)c2)n1C` [Compound 58, N-(3-cyano-4-fluoro-phenyl)-1,5-dimethyl-4-[2-oxo-2-[(2,2,2-trifluoro-1,1-dimethyl-ethyl)amino]acetyl]pyrrole-2-carboxamide] were greater than 25000 nM and 6 nM.
In data set [1], `Cc1c(C(=O)C(=O)NC(C)(C)C)cc(C(=O)Nc2ccc(F)c(C#N)c2)n1C` [Compound 59, 4-[2-(tert-butylamino)-2-oxo-acetyl]-N-(3-cyano-4-fluoro-phenyl)-1,5-dimethyl-pyrrole-2-carboxamide] returned a CC50 at 4 days greater than 25000 nM. Moreover, in the data set with HBV, the EC50 is 4 nM.
The matching figures for `Cc1c(C(=O)C(=O)NC2(C)COC2)cc(C(=O)Nc2ccc(F)c(C#N)c2)n1C` [Compound 60, N-(3-cyano-4-fluoro-phenyl)-1,5-dimethyl-4-[2-[(3-methyloxetan-3-yl)-amino]-2-oxo-acetyl]pyrrole-2-carboxamide]: greater than 25000 nM and 11 nM.
Compound `C[C@@H](NC(=O)C(=O)c1cc(C(=O)Nc2ccc(F)c(C#N)c2)n(C)c1C1CC1)C(F)(F)F` [Compound 61, N-(3-cyano-4-fluoro-phenyl)-5-cyclopropyl-1-methyl-4-[2-oxo-2-[[(1R)-2,2,2-trifluoro-1-methyl-ethyl]amino]acetyl]pyrrole-2-carboxamide] gave a CC50 at 4 days in data set [1] greater than 25000 nM. In addition, the 50% effective concentration (EC50) with HBV came to 120 nM.
The matching figures for `Cc1c(C(=O)C(=O)N[C@H]2CCN(C)C[C@H]2O)cc(C(=O)Nc2ccc(F)c(C#N)c2)n1C` [Compound 62, N-(3-cyano-4-fluoro-phenyl)-4-[2-[[(3R,4S)-3-hydroxy-1-methyl-4-piperidyl]amino]-2-oxo-acetyl]-1,5-dimethyl-pyrrole-2-carboxamide]: greater than 25000 nM and 230 nM.
Taken in the same sequence, the figures for `CCCC[C@@H](CO)NC(=O)C(=O)c1cc(C(=O)Nc2ccc(F)c(C#N)c2)n(C)c1C` [Compound 63, N-(3-cyano-4-fluoro-phenyl)-4-[2-[[(1S)-1-(hydroxymethyl)pentyl]amino]-2-oxo-acetyl]-1,5-dimethyl-pyrrole-2-carboxamide] were greater than 25000 nM and 210 nM.
Taken in the same sequence, the figures for `C[C@@H](NC(=O)C(=O)c1cc(C(=O)Nc2ccc(F)c(C#N)c2)n(C)c1)C(F)(F)F` [Compound 64, N-(3-cyano-4-fluoro-phenyl)-1-methyl-4-[2-oxo-2-[[(1R)-2,2,2-trifluoro-1-methyl-ethyl]amino]acetyl]pyrrole-2-carboxamide] were greater than 25000 nM and 66 nM.
Turning to `Cc1c(C(=O)C(=O)N[C@H]2CCC[C@@H]2O)cc(C(=O)Nc2ccc(F)c(C#N)c2)n1C` [Compound 65, N-(3-cyano-4-fluoro-phenyl)-4-[2-[[(1S,2S)-2-hydroxycyclopentyl]amino]-2-oxo-acetyl]-1,5-dimethyl-pyrrole-2-carboxamide], in data set [1], the 50% cytotoxic concentration (CC50) at 4 days was greater than 25000 nM. Besides, the EC50 in the data set with HBV is 160 nM.
In data set [1], `Cc1c(C(=O)C(=O)N[C@H]2[C@H](C)CC[C@H]2O)cc(C(=O)Nc2ccc(F)c(C#N)c2)n1C` [Compound 66, N-(3-cyano-4-fluoro-phenyl)-4-[2-[[(1S,2R,5R)-2-hydroxy-5-methyl-cyclopentyl]amino]-2-oxo-acetyl]-1,5-dimethyl-pyrrole-2-carboxamide] yielded a cytotoxic concentration (CC50) at 4 days greater than 25000 nM. Besides, the EC50 in the data set on HBV was determined as 110 nM.
`Cc1c(C(=O)C(=O)N[C@H]2CCCC[C@@H]2O)cc(C(=O)Nc2ccc(F)c(C#N)c2)n1C` [Compound 67, N-(3-cyano-4-fluoro-phenyl)-4-[2-[[(1S,2S)-2-hydroxycyclohexyl]amino]-2-oxo-acetyl]-1,5-dimethyl-pyrrole-2-carboxamide]: the CC50 at 4 days in data set [1] is greater than 25000 nM. Moreover, the EC50 with HBV was 94 nM.
The compound `Cc1c(C(=O)C(=O)N[C@H](CO)C(C)C)cc(C(=O)Nc2ccc(F)c(C#N)c2)n1C` [Compound 68, N-(3-cyano-4-fluoro-phenyl)-4-[2-[[(1S)-1-(hydroxymethyl)-2-methyl-propyl]amino]-2-oxo-acetyl]-1,5-dimethyl-pyrrole-2-carboxamide] gave a CC50 at 4 days in data set [1] greater than 25000 nM. Also, the 50% effective concentration (EC50) in the data set on HBV is 78 nM.
Taken in the same sequence, the figures for `CC[C@H](C)[C@@H](CO)NC(=O)C(=O)c1cc(C(=O)Nc2ccc(F)c(C#N)c2)n(C)c1C` [Compound 69, N-(3-cyano-4-fluoro-phenyl)-4-[2-[[(1S,2S)-1-(hydroxymethyl)-2-methyl-butyl]amino]-2-oxo-acetyl]-1,5-dimethyl-pyrrole-2-carboxamide] were greater than 25000 nM and 49 nM.
As for `COCC(C)(CCO)NC(=O)C(=O)c1cc(C(=O)Nc2ccc(F)c(C#N)c2)n(C)c1C` (centres unmarked) [Compound 70, N-(3-cyano-4-fluoro-phenyl)-4-[2-[[3-hydroxy-1-(methoxymethyl)-1-methyl-propyl]amino]-2-oxo-acetyl]-1,5-dimethyl-pyrrole-2-carboxamide], in data set [1], the cytotoxic concentration (CC50) at 4 days is greater than 25000 nM. The EC50 with HBV turned out to be 25 nM.
Taken in the same sequence, the figures for `Cc1c(C(=O)C(=O)NC2(CO)COC2)cc(C(=O)Nc2ccc(F)c(C#N)c2)n1C` [Compound 71, N-(3-cyano-4-fluoro-phenyl)-4-[2-[[3-(hydroxymethyl)oxetan-3-yl]amino]-2-oxo-acetyl]-1,5-dimethyl-pyrrole-2-carboxamide] were greater than 25000 nM and 24 nM.
In data set [1], `Cc1c(C(=O)C(=O)NC(C)C(C)(C)O)cc(C(=O)Nc2ccc(F)c(C#N)c2)n1C` (centres unmarked) [Compound 72, N-(3-cyano-4-fluoro-phenyl)-4-[2-[(2-hydroxy-1,2-dimethyl-propyl)amino]-2-oxo-acetyl]-1,5-dimethyl-pyrrole-2-carboxamide] showed a CC50 at 4 days greater than 25000 nM. In the data set on HBV, the EC50 worked out at 18 nM.
The matching figures for `Cc1c(C(=O)C(=O)NC2(CO)CC2)cc(C(=O)Nc2ccc(F)c(C#N)c2)n1C` [Compound 73, N-(3-cyano-4-fluoro-phenyl)-4-[2-[[1-(hydroxymethyl)cyclopropyl]amino]-2-oxo-acetyl]-1,5-dimethyl-pyrrole-2-carboxamide]: greater than 25000 nM and 17 nM.
